Where a name gives a salt, the structure may show the parent alone.
Assays:
[1] = system: 3D7 strain of Plasmodium falciparum; test: In vitro activity against 3D7 strain of Plasmodium falciparum ([3H]-hypoxanthine incorporation assay); type: cell-based; conditions: Erythrocyte, 48 h, P. falciparum 3D7 in human erythrocytes, 2 d, growth inhibition, read-out: IC50: 1 Org. Growth P. falciparum 3D7, 2 d (LPS_00570)
Method: In Vitro Activity Against Plasmodium falciparum a) Against 3D7 Strain of Plasmodium falciparum Inhibition of 3D7 strain parasites was assessed using the [^3H]-hypoxanthine incorporation assay (Desjardins, et al. Antimicrob. Agents Chemother. 1979, 16, 710-718). Briefly, parasites were cultured in human erythrocytes (from the Spanish Red Cross blood bank) using RPMI-1640 culture media (Gibco) supplemented with 0.5% Albumax II (Invitrogen), 2% D-sucrose (Sigma-Aldrich), 0.3% glutamine (Sigma-Aldrich), and 5 mM hypoxanthine (Sigma-Aldrich). Cultures were maintained at 37° C. at an atmosphere of 5% O2, 5% CO2, and […]. To assess inhibition, asynchronous parasite cultures with 0.5% parasitemia and 2% hematocrit were exposed to 3-fold serial dilutions of test compounds for 24 hours in 96 well plate cultures (Costar #3894). After 24 hours, [^3H]-hypoxanthine was added, plates were incubated for an additional 24 hours, and parasites were harvested on glass fiber filters (Wallac #1450-421) using a cell harvester 96 (TOMTEC, Perkin Elmer). Filters were dried on scintillator sheets (MeltiLex A, PerkinElmer #1450-441) to determine incorporation of [^3H]-hypoxanthine. Radioactivity was measured using a microbeta counter (Perkin Elmer). Data are normalized using the incorporation of the positive control (infected erythrocytes without drug). IC50 values were determined using Excel and Grafit 5 software. Values were determined from at least three independent experiments, and standard deviations were calculated.

[2] = system: W2 strain of Plasmodium falciparum; test: In vitro activity against W2 strain of Plasmodium falciparum (YOYO-1 flow cytometry); type: cell-based; conditions: Erythrocyte, 48 h, P. falciparum W2 in human erythrocytes, 2 d, growth inhibition, read-out: IC50: 1 Org. Growth P. falciparum W2, 2 d (LPS_00451)
Method: In Vitro Activity Against Plasmodium falciparum
b) Against W2 Strain of Plasmodium falciparum
W2 strain P. falciparum parasites were cultured in human erythrocytes and RPMI-1640 culture media with either 10% human serum or 0.5% Albumax serum substitute under 3% O2, 5% CO2, and 92% N2. Parasites synchronized to ring stage by treatments with 5% D-sorbitol were cultured with serial dilutions of benzoxaboroles from 5 to 10 mM stocks in 96 well microplate cultures including 200 μL of media/well, 2% hematocrit, and 1% parasitemia. At the completion of 48 h incubations, when untreated cultures contained new rings, parasites were fixed with 2% formaldehyde for 48 h, and 5 μL aliquots were transferred to another 96 well plate containing 150 μL/well of staining solution (100 mM NH4Cl, 0.1% Triton X-100, and 1 nM YOYO-1 in PBS). Parasites per erythrocyte were then determined by flow cytometry from plots of forward scatter against fluorescence (excitation 488 nm, emission 520 nm) using a FacSort flow cytometer (Beckton Dickinson) equipped with an AMS Loader (Cytek Development). All values were normalized to percent control activity, and IC50s were calculated using the Prism 3.0 program (GRAPHPAD Software). Goodness of fit was assessed by R^2 values, and meaningful dose-response curves yielded R^2 values >0.95.

Row | SMILES | IC50 [1] | IC50 [2]
1 | Cc1c(Oc2cnc(C(=O)N3CCNC[C@@H]3CO)cn2)ccc2c1B(O)OC2 [Example 51, (R)-(5-(1-hydroxy-7-methyl-1,3-dihydrobenzo[c][1,2]oxaborol-6-yloxy)pyrazin-2-yl) (2-(hydroxymethyl)piperazin-1-yl)methanone Hydrochloric Acid Salt] | 151 nM | 103 nM
2 | CCC[C@H](CO)N(C)C(=O)c1cnc(Oc2ccc3c(c2C)B(O)OC3)cn1 [Example 52, (R)-5-(1-hydroxy-7-methyl-1,3-dihydrobenzo[c][1,2]oxaborol-6-yloxy)-N-(1-hydroxypentan-2-yl)-N-methylpyrazine-2-carboxamide] | 252 nM | 48.1 nM
3 | CC[C@H](NC(=O)c1cnc(Oc2ccc3c(c2C)B(O)OC3)cn1)C(C)(C)O [Example 53, (S)—N-(2-hydroxy-2-methylpentan-3-yl)-5-(1-hydroxy-7-methyl-1,3-dihydrobenzo[c][1,2]oxaborol-6-yloxy)pyrazine-2-carboxamide] | 829 nM | 279 nM
4 | CCC1(O)CN(C(=O)c2cnc(Oc3ccc4c(c3C)B(O)OC4)cn2)C1 [Example 54, (3-ethyl-3-hydroxyazetidin-1-yl)(5-((1-hydroxy-7-methyl-1,3-dihydrobenzo[c][1,2]oxaborol-6-yl)oxy)pyrazin-2-yl)methanone] | 87 nM | 28.9 nM
5 | Cc1c(Oc2cnc(C(=O)N3CC(O)(C4CC4)C3)cn2)ccc2c1B(O)OC2 [Example 55, (3-cyclopropyl-3-hydroxyazetidin-1-yl) (5-((1-hydroxy-7-methyl-1,3-dihydrobenzo[c][1,2]oxaborol-6-yl)oxy)pyrazin-2-yl)methanone] | 234 nM | 51.7 nM
6 | CCCC1(O)CN(C(=O)c2cnc(Oc3ccc4c(c3C)B(O)OC4)cn2)C1 [Example 56, (3-hydroxy-3-propylazetidin-1-yl) (5-((1-hydroxy-7-methyl-1,3-dihydrobenzo[c][1,2]oxaborol-6-yl)oxy)pyrazin-2-yl)methanone] | 137 nM | 15.9 nM
7 | Cc1c(Oc2cnc(C(=O)N3CC(O)(C(C)C)C3)cn2)ccc2c1B(O)OC2 [Example 57, (3-hydroxy-3-isopropylazetidin-1-yl) (5-((1-hydroxy-7-methyl-1,3-dihydrobenzo[c][1,2]oxaborol-6-yl)oxy)pyrazin-2-yl)methanone] | 369 nM | 40.7 nM
8 | Cc1c(Oc2cnc(C(=O)N3CC(O)(C(F)(F)F)C3)cn2)ccc2c1B(O)OC2 [Example 58, (3-hydroxy-3-(trifluoromethyl)azetidin-1-yl) (5-((1-hydroxy-7-methyl-1,3-dihydrobenzo[c][1,2]oxaborol-6-yl)oxy)pyrazin-2-yl)methanone] | 13.9 nM | 6.6 nM
